According to US6667307B2, “Sulfonylalkanoylamino hydroxyethylamino sulfonamide retroviral protease inhibitors” (G.D. Searle & Co., priority 1995, dated 2003):

Key:
[1] = molecular target: T1, HIV protease (Human immunodeficiency virus type 1 group M subtype B, UniProt P04585); experiment: HIV protease enzyme assay (fluorescence, peptide substrate); type: biochemical; conditions: HIV protease 12.3 nanomolar, substrate 80 μM, pH 6.4, ambient temperature
T1 construct: final enzyme concentration of 12.3 nanomolar, based on a molecular weight of 10,780
Source text: The compounds of the present invention are effective HIV protease inhibitors. Utilizing an enzyme assay as described below, the compounds set forth in the examples herein disclosed inhibited the HIV enzyme. The preferred compounds of the present invention and their calculated IC50 (inhibiting concentration 50%, i.e., the concentration at which the inhibitor compound reduces enzyme activity by 50%) values are shown in Table 9. The enzyme method is described below. The substrate is 2-Ile-Nle-Phe(p-NO2)-Gln-ArgNH2. The positive control is MVT-101 (Miller, M. et al, Science, 2, 1149 (1989)) The assay conditions are as follows:
20 mM sodium phosphate, pH 6.4
The above described substrate is dissolved in DMSO, then diluted 10 fold in assay buffer. Final substrate concentration in the assay is 80 μM. HIV protease is diluted in the assay buffer to a final enzyme concentration of 12.3 nanomolar, based on a molecular weight of 10,780.
The final concentration of DMSO is 14% and the final concentration of glycerol is 18%. The test compound is dissolved in DMSO and diluted in DMSO to 10× the test concentration; 10 μl of the enzyme preparation is added, the materials mixed and then the mixture is incubated at ambient temperature for 15 minutes. The enzyme reaction is initiated by the addition of 40 μl of substrate. The increase in fluorescence is monitored at 4 time points (0, 8, 16 and 24 minutes) at ambient temperature. Each assay is carried out in duplicate wells.

[2] = test system: HIV-1 in CEM cells; experiment: CEM cell assay: HIV inhibition in acutely infected cells (tetrazolium/MTT colorimetric); type: cell-based; conditions: Human immunodeficiency virus 1, CCRF-CEM, 168 h, CEM cells acutely infected with HIV-1, 7 days, MTT readout
Protocol: The effectiveness of various compounds were determined in the above-described enzyme assay and in a CEM cell assay. The HIV inhibition assay method of acutely infected cell infected cells is an automated tetrazolium based colorimetric assay essentially that reported by Pauwles et al, J. Virol. Methods, 20 ≡, 309-321 (1988). Assays were performed in 96-well tissue culture plates. CEM cells, a CD4^+ cell line. were grown in RPMI-1640 medium (Gibco) supplemented with a 10% fetal calf serum and were then treated with polybrene (2 μg/ml). An 80 μl volume of medium containing 1×10^4 cells was dispensed into each well of the tissue culture plate. To each well was added a 100 μl volume of test compound dissolved in tissue culture medium (or medium without test compound as a control) to achieve the desired final concentration and the cells were incubated at 37° C. for 1 hour. A frozen culture of HIV-1 was diluted in culture medium to a concentration of 5×10^4 TCID50 per ml (TCID50=the dose of virus that infects 50% of cells in tissue culture), and a 20 μL volume of the virus sample (containing 1000 TCID50 of virus) was added to wells containing test compound and to wells containing only medium (infected control cells). Several wells received culture medium without virus (uninfected control cells). Likewise, the intrinsic toxicity of the test compound was determined by adding medium without virus to several wells containing test compound. In summary, the tissue culture plates contained the following experiments: [table] In experiments 2 and 4 the final concentrations of test compounds were 1, 10, 100 and 500 μg/ml. Either azidothymidine (AZT) or dideoxyinosine (ddI) was included as a positive drug control. […] DMSO was added to all control wells at an appropriate concentration. Following the addition of virus, cells were incubated at 37° C. in a humidified, 5% CO2 atmosphere for 7 days. Test compounds could be added on days 0, 2 and 5 if desired. On day 7, post-infection, the cells in each well were resuspended and a 100 μl sample of each cell suspension was removed for assay. A 20 μL volume of a 5 mg/ml solution of 3-(4,5-dimethylthiazol-2-yl)-2,5-diphenyltetrazolium bromide (MTT) was added to each 100 μL cell suspension, and the cells were incubated for 4 hours at […] in a 5% CO2 environment. […] To each sample was added 100 μl of 10% sodium dodecylsulfate in 0.01 N HCl to lyse the cells, and samples were incubated overnight. The absorbance at 590 nm was determined for each sample using a Molecular Devices microplate reader. Absorbance values for each set of wells is compared to assess viral control infection, uninfected control cell response as well as test compound by cytotoxicity and antiviral efficacy.

Structure (SMILES) | IC50 [1] [nM] | EC50 [2] [nM] | melting point [°C]
CC(C)CN(C[C@@H](O)[C@H](Cc1ccccc1)NC(=O)[C@H](C)C[S+](C)[O-])S(=O)(=O)c1ccc2c(c1)OCO2 (stereo partly drawn) [Entry 5] | 2 | 52 | –
CC(C)CN(C[C@@H](O)[C@H](Cc1ccccc1)NC(=O)[C@H](C)CS(C)(=O)=O)S(=O)(=O)c1ccc2c(c1)CCO2 [Entry 2] | 2 | 28 | –
CC(C)CN(C[C@@H](O)[C@H](Cc1ccccc1)NC(=O)[C@H](C)CS(C)(=O)=O)S(=O)(=O)c1ccc2c(c1)OCCO2 [Entry 4] | 2 | 12 | –
CC(C)CN(C[C@@H](O)[C@H](Cc1ccccc1)NC(=O)[C@H](C)C[S+](C)[O-])S(=O)(=O)c1ccc2c(c1)OCO2 (single isomer, unassigned) [Entry 6] | 7 | – | –
CC(C)CN(C[C@@H](O)[C@H](Cc1ccccc1)NC(=O)[C@H](C)CS(C)(=O)=O)S(=O)(=O)c1ccc2ncsc2c1 [Entry 3] | 3 | 26 | –
CC(C)CN(C[C@@H](O)[C@H](Cc1ccccc1)NC(=O)[C@H](C)CS(C)(=O)=O)S(=O)(=O)c1ccc2c(c1)OCO2 [Example 47, N-[2R-hydroxy-3-[(2-methylpropyl)[(1,3-benzodioxol-5-yl)sulfonyl]amino]-1S-(phenylmethyl)propyl]-2S-methyl-3-(methylsulfonyl)propanamide] | – | – | 131.8 to 133.8
CC(C)CN(C[C@@H](O)[C@H](Cc1ccccc1)NC(=O)[C@H](C)CS(C)(=O)=O)S(=O)(=O)c1ccc2c(c1)OCO2 [Entry 1] | 2 | 20 | –
